Read-outs that look alike come from different tables or passages of the source.
Key:
HIV-1 IIIB = assay: MAGI-CXCR4 HIV-1 IIIB antiviral assay (β-galactosidase reporter); conditions: for inhibition at 1 µM: MAGI, read-out: MAGI HIV IIIB % Inhibition at 1 uM, 1 uM compound; for T.I. (TC50/IC50): therapeutic index, MAGI assay; for MAGI HIV IIIB % Inhibition at 1 uM: 1 uM compound
Text: Example 2: MAGI-CXCR4 HIV-1 IIIB Assay Procedure
(§1) MAGI-CXC4 cells (obtained from the NIH AIDS Research and Reference Reagent Program) are passed into T-75 flasks prior to use in the antiviral assay. MAGI-CXCR4 cells are derived from HeLa-CD4-LTR-β-gal cells. The cells have been engineered to express high levels of CD4 and […] and contain one copy of the HIV-1 LTR promoter driving expression of the β-galactosidase gene upon HIV-1 Tat transactivation. On the day preceding the assay, the cells are plated at 1.0×10^4 per well and incubated at 37° C. overnight. Total cell and viability quantification is performed using a hemacytometer and trypan blue exclusion.
The virus used for these tests is the […](CXCR4-tropic strain HIV-1NL4-3 is also available for use). This virus was obtained from the NIH AIDS Research and Reference Reagent Program and was grown in Ghost Hi5/MAGI-CXCR4 co-cultures for the production of stock virus pools. For each assay, a pre-titered aliquot of virus is removed from the freezer (−80° C.) and allowed to thaw slowly to room temperature in a biological safety cabinet. The virus is re-suspended and diluted into tissue culture medium such that the amount of virus added to each well in a volume of […] is approximately ten TCID50/well (˜0.001 TCID50/cell).
(§2) Compounds are evaluated at one or two concentrations (e.g., for initial screening) or in dose-response at six concentrations (triplicate wells/concentration). On the day of assay setup, compound dilutions are prepared at two-times (2×) the final required concentrations. Media used for plating the cells the day before assay setup is aspirated from the plates and replaced with 50 μL of the 2× compounds, followed by the addition of 50 μL of virus, which dilutes the compounds to the final 1× concentrations. Cell control wells (cells only) and virus control wells (cells plus virus) are included on each assay plate. Identical uninfected assay plates (virus replaced with media) are prepared for parallel cytotoxicity testing. The cultures are incubated for 48 hours or 6 days (depending on compound or client requirements) after which antiviral efficacy is measured as the inhibition of β-galactosidase reporter expression and cytotoxicity is monitored by MTS staining.
A chemiluminescent endpoint is used to determine the extent of β-galactosidase expression as a measure of HIV-1 infection of the cells. Once HIV-1 has attached and entered the MAGI-CXCR4 cells, HIV-1 Tat transactivates the LTR dependent β-galactosidase enzyme to express higher than normal levels of β-galactosidase. Thus there is a direct relationship between the level of HIV-1 infection and the level of β-galactosidase detected in the cells. At 48 hours post infection, plates are aspirated and PBS is added to each well. Gal-screen reagent (Tropix, Bedford, Mass.) is then added per the manufacturer's instructions for chemiluminescent detection of β-galactosidase activity and incubated at room temperature for 90 minutes. The resulting chemiluminescence signal is then read using a Microbeta Trilux luminescence reader (PerkinElmer/Wallac).
(§3) At assay termination, the cytotoxicity assay plates are stained with the soluble tetrazolium-based dye MTS (CellTiter Reagent, Promega) to determine cell viability and quantify compound toxicity. […] At termination of the assay, 15 μL of MTS reagent is added per well. The microtiter plates are then incubated 1.5-2 hrs at 37° C.; the incubation interval was chosen based on empirically determined times for optimal dye reduction. The plates are read spectrophotometrically at 490/650 nm with a Molecular Devices Vmax plate reader. Percent inhibition of virus replication and percent cell viability at each concentration are calculated using an in-house computer program.

HIV IIIB virus = assay: Peripheral blood mononuclear cell HIV IIIB assay; conditions: for IC50: read-out: PBMC-HIV IC50; for IC90: read-out: PBMC-HIV IC90; for T.I. (TC50/IC50): therapeutic index
Method: (§4) To test efficacy of selected compounds, peripheral mononuclear cell assays are performed. Cells are infected for 6 days with live HIV IIIB virus and PBM cells are run in parallel for cytotoxicity testing, with or without selected agents. Efficacy of compounds as antagonists of the sdf-1 ligand to CXCR4 receptors was determined in I^125 labeled sdf-1 displacement assays from CXCR4-expressing CEM cells are performed.

in vitro [1] = conditions: human
Method: as §1, §2, §3

in vitro [2] = conditions: human; remark: listed apart in the source
Method: as §4

PBM cells = assay: in vitro
Method: as §4

MAGI-CXCR4 cells = assay: in vitro
Method: as §1, §2, §3

[3] = Human immunodeficiency virus 1, IIIB, MAGI-CXCR4 cells
[4] = Human immunodeficiency virus 1, IIIB, read-out: HIV IC90, MAGI-CXCR4 cells, further testing
[5] = Human immunodeficiency virus 1, IIIB, PBMC, 144 h
[6] = PBMC infected 6 days with live HIV IIIB
[7] = read-out: HIV IC90, MAGI-CXCR4 cells, further testing
[8] = read-out: HIV IC50, MAGI-CXCR4 cells, further testing

NCCCCN(C[C@@H]1CC(OCCCN)CN1C(=O)OCc1ccccc1)C1CCCc2cccnc21 (stereo partly drawn)
inhibition at 1 µM (HIV-1 IIIB; [3]): 0%

CN(C[C@@H]1CC(OCCCN)CN1C(=O)OCc1ccccc1)C1CCCc2cccnc21 (stereo partly drawn)
inhibition at 1 µM (HIV-1 IIIB; [3]): 0%

NCCCCN(C[C@@H]1CC(OCc2ccccc2)CN1)C1CCCc2cccnc21 (stereo partly drawn)
inhibition at 1 µM (HIV-1 IIIB; [3]): 0%

NCCCCN(C[C@@H]1CC(c2ccccc2)CN1)C1CCCc2cccnc21 (stereo partly drawn)
inhibition at 1 µM (HIV-1 IIIB; [3]): 20%

CN(CC1CN(Cc2ccccc2)CCN1)C1CCCc2cccnc21 (stereo not drawn)
inhibition at 1 µM (HIV-1 IIIB; [3]): 41%

CN(CC1Cc2ccccc2CN1)C1CCCc2cccnc21 (stereo not drawn)
inhibition at 1 µM (HIV-1 IIIB; [3]): 30%

O=C1c2ccccc2C(=O)N1CCCCN(CC1Cc2ccccc2CN1)C1CCCc2cccnc21 (stereo not drawn)
inhibition at 1 µM (HIV-1 IIIB; [3]): 25%

c1cc(CN2CCCNCCNCCCNCC2)ccc1CN1CCCNCCNCCCNCC1 [AMD3100, reference compound]
IC50 (HIV-1 IIIB; Human immunodeficiency virus 1, IIIB, read-out: HIV IC50, MAGI-CXCR4 cells, further testing): 0.002 µM
IC90 (HIV-1 IIIB; [4]): 0.007 µM
T.I. (TC50/IC50) (HIV-1 IIIB): >5000
IC50 (HIV IIIB virus; [5]): 0.032 µM
IC90 (HIV IIIB virus; [5]): 0.134 µM
T.I. (TC50/IC50) (HIV IIIB virus; PBMC): >150
CC50 (in vitro [1]): > 10 µM
CC50 at 6 days (in vitro [2]): > 5 µM

Cc1cn([C@H]2C[C@H](N=[N+]=[N-])[C@@H](CO)O2)c(=O)[nH]c1=O [AZT]
IC50 (HIV IIIB virus; [6]): 0.004 µM
IC90 (HIV IIIB virus; [6]): 0.07 µM
T.I. (TC50/IC50) (HIV IIIB virus; PBMC): >240
CC50 (PBM cells): > 1 µM

NCCCCN(CC1CN(Cc2ccccc2)CCN1)C1CCCc2cccnc21 (stereo not drawn) [Compound 8]
MAGI HIV IIIB % Inhibition at 1 uM (HIV-1 IIIB; MAGI-CXCR4 cells): 95%
IC90 (HIV-1 IIIB; [7]): 0.72 µM
T.I. (TC50/IC50) (HIV-1 IIIB): >67
CC50 (MAGI-CXCR4 cells; human): > 10 µM

NCCCCN(CC1CN(Cc2ccccc2)CCN1)C1CCCc2cccnc21 (stereo not drawn) [Compound 9]
inhibition at 1 µM (HIV-1 IIIB; [3]): 92%
IC90 (HIV-1 IIIB; [4]): 0.44 µM
IC50 (HIV-1 IIIB; [8]): 0.03 µM
IC50 (HIV-1 IIIB; read-out: MAGI HIV IIIB IC50, MAGI-CXCR4 cells): 0.03 µM
T.I. (TC50/IC50) (HIV-1 IIIB): >333
CC50 (in vitro [1]): > 10 µM

Cc1ccc(-c2ccc3c(c2)C=C(C(=O)Nc2ccc(C[N+](C)(C)C4CCOCC4)cc2)CCC3)cc1 [TAK779, reference compound]
IC50 (HIV-1 IIIB; [8]): > 10 µM
IC90 (HIV-1 IIIB; [7]): > 10 µM
CC50 (MAGI-CXCR4 cells; read-out: TC50, MTS staining, uninfected MAGI-CXCR4 cells): > 10 µM

NCCCCN(CC1CCc2ccccc2N1)C1CCCc2cccnc21 (stereo not drawn) [drawing 40]
inhibition at 1 µM (HIV-1 IIIB; [3]): 42%

NCCCCN(CC1CCc2ccccc2N1)C1CCCc2cccnc21 (stereo not drawn) [drawing 41]
MAGI HIV IIIB % Inhibition at 1 uM (HIV-1 IIIB; MAGI-CXCR4 cells): 31% @ 1 uM

Maraviroc
IC50 (HIV IIIB virus; [6]): > 2 µM
IC90 (HIV IIIB virus; [6]): > 2 µM

From patent US10016408B2, “Chemokine CXCR4 receptor modulators and uses related thereto” (EMORY UNIVERSITY, priority 2010, dated 2018)
